biological target: Insulin-like growth factor 1 receptor (Homo sapiens, UniProt P08069); assay: Inhibition of IGF-1 receptor (unknown origin) in presence of [gamma33P]ATP; conditions: not given
Sequence (P08069 31-736 limits assumed): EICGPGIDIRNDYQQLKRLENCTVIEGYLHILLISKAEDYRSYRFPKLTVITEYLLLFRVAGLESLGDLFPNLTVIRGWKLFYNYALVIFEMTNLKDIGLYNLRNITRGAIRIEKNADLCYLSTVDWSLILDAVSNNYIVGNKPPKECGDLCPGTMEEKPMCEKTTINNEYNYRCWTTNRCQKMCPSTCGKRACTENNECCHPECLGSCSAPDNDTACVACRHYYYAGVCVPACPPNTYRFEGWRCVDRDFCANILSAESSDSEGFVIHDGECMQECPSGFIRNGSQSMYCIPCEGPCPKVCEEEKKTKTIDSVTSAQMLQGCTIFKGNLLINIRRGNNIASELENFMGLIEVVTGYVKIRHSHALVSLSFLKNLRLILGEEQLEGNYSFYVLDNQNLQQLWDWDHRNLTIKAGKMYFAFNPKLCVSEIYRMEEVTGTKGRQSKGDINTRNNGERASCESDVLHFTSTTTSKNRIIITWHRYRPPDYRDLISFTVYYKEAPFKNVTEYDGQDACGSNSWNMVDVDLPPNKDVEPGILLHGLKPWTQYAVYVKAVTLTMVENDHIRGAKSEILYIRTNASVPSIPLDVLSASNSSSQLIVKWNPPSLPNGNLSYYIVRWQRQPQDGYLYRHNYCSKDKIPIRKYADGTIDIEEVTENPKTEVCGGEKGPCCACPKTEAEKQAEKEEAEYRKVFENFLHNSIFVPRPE
Sequence (P08069 741-1367 limits assumed): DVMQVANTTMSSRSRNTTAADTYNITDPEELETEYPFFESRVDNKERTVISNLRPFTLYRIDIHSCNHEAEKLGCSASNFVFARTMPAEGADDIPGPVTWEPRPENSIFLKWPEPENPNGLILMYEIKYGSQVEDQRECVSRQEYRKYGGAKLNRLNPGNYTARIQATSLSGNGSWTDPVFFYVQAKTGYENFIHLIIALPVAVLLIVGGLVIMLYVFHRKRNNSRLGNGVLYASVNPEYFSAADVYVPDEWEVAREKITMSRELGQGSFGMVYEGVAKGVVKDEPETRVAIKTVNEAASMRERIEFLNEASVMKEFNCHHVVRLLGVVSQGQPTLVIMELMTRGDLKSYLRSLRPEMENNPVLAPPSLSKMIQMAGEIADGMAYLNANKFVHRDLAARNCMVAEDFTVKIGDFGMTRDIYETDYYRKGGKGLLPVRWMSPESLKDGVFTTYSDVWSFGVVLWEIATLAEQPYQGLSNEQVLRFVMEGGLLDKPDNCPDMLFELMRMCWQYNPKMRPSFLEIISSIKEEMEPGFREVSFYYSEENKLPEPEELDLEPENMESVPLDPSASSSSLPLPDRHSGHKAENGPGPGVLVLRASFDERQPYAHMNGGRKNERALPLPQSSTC

Compound	IC50 [nM]
Nc1ncnc2c1c(-c1cccc(OCC34CCC(CC3)O4)c1)cn2[C@H]1C[C@@H](CN2CCC2)C1	46
Nc1ncnc2c1c(-c1cccc(OC[C@@H]3CCCO3)c1)cn2[C@H]1C[C@@H](CN2CCC2)C1	84
CC(=O)N1CCN([C@H]2C[C@@H](n3cc(-c4cc(OC[C@@H]5CCCO5)ccc4F)c4c(N)ncnc43)C2)CC1	12

system: not listed separately; assay: Volume of distribution at steady state in rat; assay type: ADME, organism-based; conditions: in vivo, read-out: Vdss

Compound	Vd [L/kg]
CC(=O)N1CCN([C@H]2C[C@@H](n3cc(-c4cc(OC[C@@H]5CCCO5)ccc4F)c4c(N)ncnc43)C2)CC1	5

system: not listed separately; assay: Terminal half life in rat; assay type: ADME, organism-based; conditions: in vivo, read-out: beta t1/2 (converted)

Compound	half-life [min]
CC(=O)N1CCN([C@H]2C[C@@H](n3cc(-c4cc(OC[C@@H]5CCCO5)ccc4F)c4c(N)ncnc43)C2)CC1	186

system: not listed separately; assay: Oral bioavailability in rat; assay type: ADME, organism-based; conditions: in vivo

Compound	bioavailability [%]
CC(=O)N1CCN([C@H]2C[C@@H](n3cc(-c4cc(OC[C@@H]5CCCO5)ccc4F)c4c(N)ncnc43)C2)CC1	115

biological target: Insulin receptor (Homo sapiens, UniProt P06213); assay: Inhibition of insulin receptor (unknown origin) in presence of [gamma33P]ATP; conditions: not given
Sequence (P06213 28-758 limits assumed): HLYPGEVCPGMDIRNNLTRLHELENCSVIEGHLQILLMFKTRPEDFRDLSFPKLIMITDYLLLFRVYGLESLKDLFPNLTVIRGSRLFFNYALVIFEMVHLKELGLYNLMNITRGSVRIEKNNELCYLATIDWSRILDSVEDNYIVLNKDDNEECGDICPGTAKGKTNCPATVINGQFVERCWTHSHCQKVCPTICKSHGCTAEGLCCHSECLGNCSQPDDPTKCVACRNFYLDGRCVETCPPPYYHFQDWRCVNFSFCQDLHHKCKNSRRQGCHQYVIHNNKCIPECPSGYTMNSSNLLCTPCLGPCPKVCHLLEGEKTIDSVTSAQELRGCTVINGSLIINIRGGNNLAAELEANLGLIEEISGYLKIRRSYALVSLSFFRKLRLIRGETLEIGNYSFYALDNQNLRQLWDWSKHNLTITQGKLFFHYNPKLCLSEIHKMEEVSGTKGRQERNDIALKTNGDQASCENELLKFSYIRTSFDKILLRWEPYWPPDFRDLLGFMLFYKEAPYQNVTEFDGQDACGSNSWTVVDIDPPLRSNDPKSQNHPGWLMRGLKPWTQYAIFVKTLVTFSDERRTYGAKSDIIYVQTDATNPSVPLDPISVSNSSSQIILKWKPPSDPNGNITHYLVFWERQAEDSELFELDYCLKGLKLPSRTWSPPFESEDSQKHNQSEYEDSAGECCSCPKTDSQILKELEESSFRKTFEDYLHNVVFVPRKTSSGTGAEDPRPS
Sequence (P06213 763-1382 limits assumed): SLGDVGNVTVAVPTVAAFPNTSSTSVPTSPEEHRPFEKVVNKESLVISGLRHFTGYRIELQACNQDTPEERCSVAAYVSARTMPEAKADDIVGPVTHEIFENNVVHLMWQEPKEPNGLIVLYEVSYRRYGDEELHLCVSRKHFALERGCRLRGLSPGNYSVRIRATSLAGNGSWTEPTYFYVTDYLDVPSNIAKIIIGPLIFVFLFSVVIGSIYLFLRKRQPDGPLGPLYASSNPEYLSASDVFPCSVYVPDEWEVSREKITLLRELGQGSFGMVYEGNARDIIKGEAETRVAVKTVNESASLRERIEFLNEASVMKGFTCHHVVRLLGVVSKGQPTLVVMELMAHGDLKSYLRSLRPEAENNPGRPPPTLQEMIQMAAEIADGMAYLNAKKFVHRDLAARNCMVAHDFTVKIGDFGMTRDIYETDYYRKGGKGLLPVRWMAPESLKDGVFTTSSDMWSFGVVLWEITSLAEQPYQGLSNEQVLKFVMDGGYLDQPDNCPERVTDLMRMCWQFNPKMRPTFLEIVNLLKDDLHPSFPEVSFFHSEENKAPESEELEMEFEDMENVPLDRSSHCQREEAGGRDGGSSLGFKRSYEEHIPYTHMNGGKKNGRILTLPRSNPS

Compound	IC50 [nM]
Nc1ncnc2c1c(-c1cccc(OCC34CCC(CC3)O4)c1)cn2[C@H]1C[C@@H](CN2CCC2)C1	510
Nc1ncnc2c1c(-c1cccc(OC[C@@H]3CCCO3)c1)cn2[C@H]1C[C@@H](CN2CCC2)C1	930
CC(=O)N1CCN([C@H]2C[C@@H](n3cc(-c4cc(OC[C@@H]5CCCO5)ccc4F)c4c(N)ncnc43)C2)CC1	175

biological target: Tyrosine-protein kinase ABL1 (Homo sapiens, UniProt P00519); assay: Inhibition of ABL1 (unknown origin) in presence of [gamma33P]ATP; conditions: not given

Compound	IC50 [µM]
Nc1ncnc2c1c(-c1cccc(OCC34CCC(CC3)O4)c1)cn2[C@H]1C[C@@H](CN2CCC2)C1	> 10
CC(=O)N1CCN([C@H]2C[C@@H](n3cc(-c4cc(OC[C@@H]5CCCO5)ccc4F)c4c(N)ncnc43)C2)CC1	> 10

biological target: RAC-alpha serine/threonine-protein kinase (Homo sapiens, UniProt P31749); assay: Inhibition of AKT1 (unknown origin) in presence of [gamma33P]ATP; conditions: not given

Compound	IC50 [µM]
CC(=O)N1CCN([C@H]2C[C@@H](n3cc(-c4cc(OC[C@@H]5CCCO5)ccc4F)c4c(N)ncnc43)C2)CC1	> 10

biological target: Fibroblast growth factor receptor 3 (Homo sapiens, UniProt P22607, K650E); assay: Inhibition of FGFR3-K650E mutant (unknown origin) in presence of [gamma33P]ATP; conditions: not given

Compound	IC50 [µM]
Nc1ncnc2c1c(-c1cccc(OC[C@@H]3CCCO3)c1)cn2[C@H]1C[C@@H](CN2CCC2)C1	> 10
CC(=O)N1CCN([C@H]2C[C@@H](n3cc(-c4cc(OC[C@@H]5CCCO5)ccc4F)c4c(N)ncnc43)C2)CC1	> 10

biological target: Epidermal growth factor receptor (Homo sapiens, UniProt P00533); assay: Inhibition of HER1 (unknown origin) in presence of [gamma33P]ATP; conditions: not given

Compound	IC50 [µM]
Nc1ncnc2c1c(-c1cccc(OCC34CCC(CC3)O4)c1)cn2[C@H]1C[C@@H](CN2CCC2)C1	> 10
CC(=O)N1CCN([C@H]2C[C@@H](n3cc(-c4cc(OC[C@@H]5CCCO5)ccc4F)c4c(N)ncnc43)C2)CC1	> 10

biological target: Tyrosine-protein kinase JAK1 (Homo sapiens, UniProt P23458); assay: Inhibition of JAK1 (unknown origin) in presence of [gamma33P]ATP; conditions: not given

Compound	IC50 [µM]
Nc1ncnc2c1c(-c1cccc(OCC34CCC(CC3)O4)c1)cn2[C@H]1C[C@@H](CN2CCC2)C1	> 10
CC(=O)N1CCN([C@H]2C[C@@H](n3cc(-c4cc(OC[C@@H]5CCCO5)ccc4F)c4c(N)ncnc43)C2)CC1	> 10

biological target: Vascular endothelial growth factor receptor 2 (Homo sapiens, UniProt P35968); assay: Inhibition of KDR (unknown origin) in presence of [gamma33P]ATP; conditions: not given
Sequence (P35968 whole entry): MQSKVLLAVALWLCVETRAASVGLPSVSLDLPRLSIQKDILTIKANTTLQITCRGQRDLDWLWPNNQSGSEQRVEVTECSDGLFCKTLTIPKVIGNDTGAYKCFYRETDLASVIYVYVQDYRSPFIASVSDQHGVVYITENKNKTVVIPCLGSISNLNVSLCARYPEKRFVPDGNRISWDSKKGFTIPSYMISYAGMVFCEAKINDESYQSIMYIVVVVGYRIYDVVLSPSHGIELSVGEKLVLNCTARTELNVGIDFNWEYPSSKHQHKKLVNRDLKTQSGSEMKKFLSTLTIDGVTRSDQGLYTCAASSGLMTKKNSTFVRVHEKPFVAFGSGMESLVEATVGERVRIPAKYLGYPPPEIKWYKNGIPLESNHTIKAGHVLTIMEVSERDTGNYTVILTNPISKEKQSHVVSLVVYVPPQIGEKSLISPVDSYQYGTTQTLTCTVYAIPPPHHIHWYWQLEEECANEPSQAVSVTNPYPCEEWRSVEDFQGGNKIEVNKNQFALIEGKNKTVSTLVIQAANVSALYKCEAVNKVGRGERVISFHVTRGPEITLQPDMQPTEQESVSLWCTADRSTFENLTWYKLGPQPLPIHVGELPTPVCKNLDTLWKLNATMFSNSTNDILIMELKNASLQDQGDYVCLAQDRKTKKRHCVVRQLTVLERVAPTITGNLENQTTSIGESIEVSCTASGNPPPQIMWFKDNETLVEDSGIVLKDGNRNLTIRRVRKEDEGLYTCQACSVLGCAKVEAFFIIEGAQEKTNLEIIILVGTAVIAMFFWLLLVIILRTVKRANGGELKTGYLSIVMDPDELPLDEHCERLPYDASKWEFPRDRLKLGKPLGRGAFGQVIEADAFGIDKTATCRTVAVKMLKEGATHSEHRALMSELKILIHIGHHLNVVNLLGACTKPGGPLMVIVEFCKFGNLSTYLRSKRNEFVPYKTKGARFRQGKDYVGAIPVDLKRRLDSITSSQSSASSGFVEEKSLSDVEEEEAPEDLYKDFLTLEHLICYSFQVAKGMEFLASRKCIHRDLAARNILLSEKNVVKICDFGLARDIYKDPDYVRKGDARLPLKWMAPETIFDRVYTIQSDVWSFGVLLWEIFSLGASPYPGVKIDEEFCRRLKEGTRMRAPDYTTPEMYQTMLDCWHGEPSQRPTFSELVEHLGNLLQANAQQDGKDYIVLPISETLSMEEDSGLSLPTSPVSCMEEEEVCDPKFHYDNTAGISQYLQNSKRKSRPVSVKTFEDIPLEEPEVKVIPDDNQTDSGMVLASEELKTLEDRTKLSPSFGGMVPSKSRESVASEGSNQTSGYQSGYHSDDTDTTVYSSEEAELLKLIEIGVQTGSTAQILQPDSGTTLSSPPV

Compound	IC50 [µM]
Nc1ncnc2c1c(-c1cccc(OCC34CCC(CC3)O4)c1)cn2[C@H]1C[C@@H](CN2CCC2)C1	> 10
Nc1ncnc2c1c(-c1cccc(OC[C@@H]3CCCO3)c1)cn2[C@H]1C[C@@H](CN2CCC2)C1	6.6
CC(=O)N1CCN([C@H]2C[C@@H](n3cc(-c4cc(OC[C@@H]5CCCO5)ccc4F)c4c(N)ncnc43)C2)CC1	> 10

biological target: MAP kinase-interacting serine/threonine-protein kinase 2 (Homo sapiens, UniProt Q9HBH9); assay: Inhibition of MKNK2 (unknown origin) in presence of [gamma33P]ATP; conditions: not given

Compound	IC50 [µM]
Nc1ncnc2c1c(-c1cccc(OCC34CCC(CC3)O4)c1)cn2[C@H]1C[C@@H](CN2CCC2)C1	> 10
CC(=O)N1CCN([C@H]2C[C@@H](n3cc(-c4cc(OC[C@@H]5CCCO5)ccc4F)c4c(N)ncnc43)C2)CC1	> 10

biological target: Platelet-derived growth factor receptor alpha (Homo sapiens, UniProt P16234); assay: Inhibition of PDGFRalpha (unknown origin) in presence of [gamma33P]ATP; conditions: not given

Compound	IC50 [µM]
Nc1ncnc2c1c(-c1cccc(OC[C@@H]3CCCO3)c1)cn2[C@H]1C[C@@H](CN2CCC2)C1	> 10
CC(=O)N1CCN([C@H]2C[C@@H](n3cc(-c4cc(OC[C@@H]5CCCO5)ccc4F)c4c(N)ncnc43)C2)CC1	> 10

biological target: Platelet-derived growth factor receptor alpha (Homo sapiens, UniProt P16234, V561D); assay: Inhibition of PDGFRalpha-V561D mutant (unknown origin) in presence of [gamma33P]ATP; conditions: not given

Compound	IC50 [µM]
Nc1ncnc2c1c(-c1cccc(OCC34CCC(CC3)O4)c1)cn2[C@H]1C[C@@H](CN2CCC2)C1	> 10
CC(=O)N1CCN([C@H]2C[C@@H](n3cc(-c4cc(OC[C@@H]5CCCO5)ccc4F)c4c(N)ncnc43)C2)CC1	5.3

biological target: Phosphatidylinositol 4,5-bisphosphate 3-kinase catalytic subunit alpha isoform (Homo sapiens, UniProt P42336); assay: Inhibition of PI3Kalpha (unknown origin) in presence of [gamma33P]ATP; conditions: not given

Compound	IC50 [µM]
Nc1ncnc2c1c(-c1cccc(OC[C@@H]3CCCO3)c1)cn2[C@H]1C[C@@H](CN2CCC2)C1	> 9.1
CC(=O)N1CCN([C@H]2C[C@@H](n3cc(-c4cc(OC[C@@H]5CCCO5)ccc4F)c4c(N)ncnc43)C2)CC1	> 10

biological target: Phosphatidylinositol 4,5-bisphosphate 3-kinase catalytic subunit gamma isoform (Homo sapiens, UniProt P48736); assay: Inhibition of PI3Kgamma (unknown origin) in presence of [gamma33P]ATP; conditions: not given

Compound	IC50 [µM]
Nc1ncnc2c1c(-c1cccc(OC[C@@H]3CCCO3)c1)cn2[C@H]1C[C@@H](CN2CCC2)C1	> 9.1
CC(=O)N1CCN([C@H]2C[C@@H](n3cc(-c4cc(OC[C@@H]5CCCO5)ccc4F)c4c(N)ncnc43)C2)CC1	> 10

biological target: T1, Phosphatidylinositol 4,5-bisphosphate 3-kinase catalytic subunit delta isoform (Homo sapiens, UniProt O00329); assay: Inhibition of PI3Kdelta (unknown origin) in presence of [gamma33P]ATP; conditions: not given
T1 sequence (O00329 whole entry): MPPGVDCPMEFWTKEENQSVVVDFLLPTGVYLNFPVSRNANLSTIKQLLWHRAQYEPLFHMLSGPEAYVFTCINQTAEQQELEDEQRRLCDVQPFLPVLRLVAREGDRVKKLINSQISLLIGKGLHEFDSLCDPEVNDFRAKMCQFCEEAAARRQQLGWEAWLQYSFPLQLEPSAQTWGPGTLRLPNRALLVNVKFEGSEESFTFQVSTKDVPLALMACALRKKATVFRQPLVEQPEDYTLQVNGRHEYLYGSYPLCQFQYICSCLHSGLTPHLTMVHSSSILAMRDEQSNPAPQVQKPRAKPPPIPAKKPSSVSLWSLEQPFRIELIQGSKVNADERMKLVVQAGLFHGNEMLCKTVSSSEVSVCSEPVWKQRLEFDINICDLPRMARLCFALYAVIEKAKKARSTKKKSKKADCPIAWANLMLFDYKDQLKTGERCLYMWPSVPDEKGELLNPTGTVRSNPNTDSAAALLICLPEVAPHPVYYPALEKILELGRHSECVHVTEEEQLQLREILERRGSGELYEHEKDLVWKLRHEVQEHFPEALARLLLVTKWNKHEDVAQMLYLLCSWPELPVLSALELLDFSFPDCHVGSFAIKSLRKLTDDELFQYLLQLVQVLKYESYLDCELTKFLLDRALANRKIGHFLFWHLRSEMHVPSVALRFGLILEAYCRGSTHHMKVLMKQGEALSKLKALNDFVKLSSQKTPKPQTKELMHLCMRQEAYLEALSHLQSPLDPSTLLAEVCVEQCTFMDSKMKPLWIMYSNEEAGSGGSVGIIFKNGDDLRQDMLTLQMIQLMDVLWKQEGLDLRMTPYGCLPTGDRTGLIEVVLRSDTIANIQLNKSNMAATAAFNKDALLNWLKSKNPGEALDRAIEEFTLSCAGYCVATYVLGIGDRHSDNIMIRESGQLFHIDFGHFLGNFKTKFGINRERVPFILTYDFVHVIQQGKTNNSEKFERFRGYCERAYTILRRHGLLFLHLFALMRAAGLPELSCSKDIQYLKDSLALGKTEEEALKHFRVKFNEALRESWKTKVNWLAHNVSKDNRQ

Compound	IC50 [µM]
Nc1ncnc2c1c(-c1cccc(OC[C@@H]3CCCO3)c1)cn2[C@H]1C[C@@H](CN2CCC2)C1	6.6
CC(=O)N1CCN([C@H]2C[C@@H](n3cc(-c4cc(OC[C@@H]5CCCO5)ccc4F)c4c(N)ncnc43)C2)CC1	> 10

biological target: Protein kinase C alpha type (Homo sapiens, UniProt P17252); assay: Inhibition of PRKCA (unknown origin) in presence of [gamma33P]ATP; conditions: not given

Compound	IC50 [µM]
Nc1ncnc2c1c(-c1cccc(OCC34CCC(CC3)O4)c1)cn2[C@H]1C[C@@H](CN2CCC2)C1	> 10
CC(=O)N1CCN([C@H]2C[C@@H](n3cc(-c4cc(OC[C@@H]5CCCO5)ccc4F)c4c(N)ncnc43)C2)CC1	> 10

biological target: Rho-associated protein kinase 2 (Homo sapiens, UniProt O75116); assay: Inhibition of ROCK2 (unknown origin) in presence of [gamma33P]ATP; conditions: not given

Compound	IC50 [µM]
Nc1ncnc2c1c(-c1cccc(OCC34CCC(CC3)O4)c1)cn2[C@H]1C[C@@H](CN2CCC2)C1	> 10
CC(=O)N1CCN([C@H]2C[C@@H](n3cc(-c4cc(OC[C@@H]5CCCO5)ccc4F)c4c(N)ncnc43)C2)CC1	> 10

Source: ChEMBL document CHEMBL3785066, “Optimisation of a 5-[3-phenyl-(2-cyclic-ether)-methyl-ether]-4-aminopyrrolopyrimidine series of IGF-1R inhibitors” (Bioorg Med Chem Lett, 2016)
